Bounds are passed on as bounds.

A word on the melting point: it is the temperature of the solid-liquid transition.

Regarding `CCCC1=C(C(=O)OCC)C(c2ccc3c(c2)OCCO3)c2c[nH]nc2N1.O=C(O)/C=C\C(=O)O` (stereo not shown) [Example 80, Ethyl 4-(2,3-dihydro-1,4-benzodioxin-6-yl)-4,7-dihydro-6-propyl-2H-pyrazolo[3,4-b]pyridine-5-carboxylate maleate], the melting point was in the range of 147 to 149 °C.
The figure for `CCCC1=C(C#N)C(c2ccccc2Cl)c2c[nH]nc2N1` (stereo not shown) [Example 94, 4-(2-Chlorophenyl)-5-cyano-4,7-dihydro-6-propyl-2H-pyrazolo[3,4-b]pyridine] is 248 °C; for `CCCC1=C(C(=O)OCC)C(c2ccccc2Br)c2c[nH]nc2N1` (stereo not shown) [Example 29, Ethyl 4-(2-bromophenyl)-4,7-dihydro-6-propyl-2H-pyrazolo[3,4-b]pyridine-5-carboxylate] it is 223 °C.
`CCOC(=O)C1=C(C(F)(F)F)Nc2n[nH]cc2C1c1ccccc1OC` (stereo not shown) [Example 15, Ethyl 4,7-dihydro-4-(2-methoxyphenyl)-6-trifluoromethyl-2H-pyrazolo[3,4-b]pyridine-5-carboxylate] yielded a melting point of 144 to 146 °C.
The figure for `CC(C)(C)OC(=O)N1CCCC(C2=C(C#N)C(c3cccc(C#N)c3Br)c3c[nH]nc3N2)C1` (stereo not shown) [Example 1039, 4-(2-Bromo-3-cyanophenyl)-6-(1-t-butoxycarbonylpiperidin-3-yl)-5-cyano-4,7-dihydro-2H-pyrazolo[3,4-b]pyridine] is 238 °C; for `Cc1ccccc1C1C(C#N)=C(c2cccs2)Nc2n[nH]cc21` (stereo not shown) [Example 249, 5-Cyano-4,7-dihydro-4-(2-methylphenyl)-6-(thiophen-2-yl)-2H-pyrazolo[3,4-b]pyridine] it is 276 °C.
The result for `CC(C)(C)OC(=O)N1CCCC(C2=C(C#N)C(c3cccc4nonc34)c3c[nH]nc3N2)C1` (stereo not shown) [Example 1004, 4-(2,1,3-Benzoxadiazol-4-yl)-6-(1-t-butoxycarbonylpiperidin-3-yl)-5-cyano-4,7-dihydro-2H-pyrazolo[3,4-b]pyridine] reads 229 °C; that for `CCOC(=O)C1=C(C(F)(F)F)Nc2n[nH]cc2C1c1ccccc1C(F)(F)F` (stereo not shown) [Example 16, Ethyl 4,7-dihydro-6-trifluoromethyl-4-(2-trifluoromethylphenyl)-2H-pyrazolo[3,4-b]pyridine-5-carboxylate], 182 to 186 °C; that for `CCCC1=C(C(=O)OCC)C(c2ccco2)c2c[nH]nc2N1.O=C(O)/C=C\C(=O)O` (stereo not shown) [Example 59, Ethyl 4-(furan-2-yl)-4,7-dihydro-6-propyl-2H-pyrazolo[3,4-b]pyridine-5-carboxylate maleate], 108 to 111 °C.
The result for `N#CC1=C(C2CCCCCC2)Nc2n[nH]cc2C1c1ccccc1Cl` (stereo not shown) [Example 312, 4-(2-Chlorophenyl)-5-cyano-6-cycloheptyl-4,7-dihydro-2H-pyrazolo[3,4-b]pyridine] reads 146 °C.
As for `CCCC1=C(C#N)C(c2ccccc2[N+](=O)[O-])c2c[nH]nc2N1` (stereo not shown) [Example 132, 5-Cyano-4,7-dihydro-4-(2-nitrophenyl)-6-propyl-2H-pyrazolo[3,4-b]pyridine], the melting point amounted to 216 °C.
`CCCC1=C(C#N)C(c2ccccc2Cl)c2c(n[nH]c2C2CC2)N1` (stereo not shown) [Example 308, 4-(2-Chlorophenyl)-5-cyano-3-cyclopropyl-4,7-dihydro-6-propyl-2H-pyrazolo[3,4-b]pyridine]: the melting point stood at 270 °C.
The figure for `CCCC1=C(C(=O)OCC)C(c2ccccc2O)c2c[nH]nc2N1` (stereo not shown) [Example 98, Ethyl 4,7-dihydro-4-(2-hydroxyphenyl)-6-propyl-2H-pyrazolo[3,4-b]pyridine-5-carboxylate] is 177 °C.
The figure for `CCCC1=C(C#N)C(c2ccccc2OC)c2c[nH]nc2N1` (stereo not shown) [Example 129, 5-Cyano-4,7-dihydro-4-(2-methoxyphenyl)-6-propyl-2H-pyrazolo[3,4-b]pyridine] is 203 °C.
The figure for `CCCC1=C(C(=O)OCC)C(c2cccc(F)c2C)c2c[nH]nc2N1` (stereo not shown) [Example 45, Ethyl 4-(3-fluoro-2-methylphenyl)-4,7-dihydro-6-propyl-2H-pyrazolo[3,4-b]pyridine-5-carboxylate] is 159 to 162 °C; for `CCCC1=C(C(=O)OCC)C(c2ccccc2C(F)(F)F)c2c[nH]nc2N1` (stereo not shown) [Example 31, Ethyl 4,7-dihydro-6-propyl-4-(2-trifluoromethylphenyl)-2H-pyrazolo[3,4-b]pyridine-5-carboxylate] it is 198 to 202 °C; for `CC(C)(C)OC(=O)N1CC=C(C2=C(C#N)C(c3cccc4nonc34)c3c[nH]nc3N2)CC1` (stereo not shown) [Example 1012, 4-(2,1,3-Benzoxadiazol-4-yl)-6-(1-t-butoxycarbonyl-1,2,3,6-tetrahydropyridin-4-yl)-5-cyano-4,7-dihydro-2H-pyrazolo[3,4-b]pyridine] it is 222 °C.
Take `O=C1OCC2=C1C(c1ccccc1Cl)c1c[nH]nc1N2` (stereo not shown) [Example 96, 4-(2-Chlorophenyl)-2,4,7,8-tetrahydrofurano[3,4-b]pyrazolo[4,3-e]pyridin-5-one]: the melting point is > 270 °C.
As to `CCOC(=O)C1=C(C(F)(F)F)Nc2n[nH]cc2C1c1ccc(C(=O)OCC)cc1` (stereo not shown) [Example 20, Ethyl 4-(4-ethoxycarbonylphenyl)-4,7-dihydro-6-trifluoromethyl-2H-pyrazolo[3,4-b]pyridine-5-carboxylate], the melting point is 157 to 160 °C.
The result for `CCCC1=C(C(=O)OCC)C(c2cccc3nonc23)c2c[nH]nc2N1` (stereo not shown) [Example 76, Ethyl 4-(2,1,3-benzoxadiazol-4-yl)-4,7-dihydro-6-propyl-2H-pyrazolo[3,4-b]pyridine-5-carboxylate] reads 207 °C; that for `CCCC1=C(C#N)C(c2ccccc2Cl)c2c(n[nH]c2CC(OC)OC)N1` (stereo not shown) [Example 330, 4-(2-Chlorophenyl)-5-cyano-4,7-dihydro-3-(2,2-dimethoxyethyl)-6-propyl-2H-pyrazolo[3,4-b]pyridine], 180 °C.
The figure for `CC1=C([N+](=O)[O-])C(c2cccc(Cl)c2Cl)c2c[nH]nc2N1` (stereo not shown) [Example 125, 4-(2,3-Dichlorophenyl)-4,7-dihydro-6-methyl-5-nitro-2H-pyrazolo[3,4-b]pyridine] is > 270 °C; for `CC(=O)C1=C(C#N)C(c2cccc3nonc23)c2c[nH]nc2N1` (stereo not shown) [Example 1082, 6-Acetyl-4-(2,1,3-benzoxadiazol-4-yl)-5-cyano-4,7-dihydro-2H-pyrazolo[3,4-b]pyridine] it is 230 °C (dec.); for `CCOC(=O)C1=C(CC)Nc2n[nH]cc2C1c1ccccc1OC` (stereo not shown) [Example 89, Ethyl 6-ethyl-4,7-dihydro-4-(2-methoxyphenyl)-2H-pyrazolo[3,4-b]pyridine-5-carboxylate] it is 169 °C.
Compound `CSc1ccccc1C1C(C#N)=C(c2cccs2)Nc2n[nH]cc21` (stereo not shown) [Example 243, 5-Cyano-4,7-dihydro-4-(2-methylthiophenyl)-6-(thiophen-2-yl)-2H-pyrazolo[3,4-b]pyridine] showed a melting point of 222 °C.
The result for `CCCC1=C([N+](=O)[O-])C(c2ccccc2[N+](=O)[O-])c2c[nH]nc2N1` (stereo not shown) reads 204 °C; that for `CCCC1=C(C(=O)OCC)C(c2cccc(C)c2OC)c2c[nH]nc2N1` (stereo not shown) [Example 190, Ethyl 4,7-dihydro-4-(2-methoxy-3-methylphenyl)-6-propyl-2H-pyrazolo[3,4-b]pyridine-5-carboxylate], 220 to 222 °C.
`N#CC1=C(c2ccc(Br)s2)Nc2n[nH]cc2C1c1cccc2nonc12` (stereo not shown) [Example 291, 4-(2,1,3-Benzoxadiazol-4-yl)-6-(2-bromothiophen-5-yl)-5-cyano-4,7-dihydro-2H-pyrazolo[3,4-b]pyridine]: the melting point is 208 °C.
The compound `COc1cccc(C2=C(C#N)C(c3ccccc3[N+](=O)[O-])c3c[nH]nc3N2)c1` (stereo not shown) [Example 156, 5-Cyano-4,7-dihydro-6-(3-methoxyphenyl)-4-(2-nitrophenyl)-2H-pyrazolo[3,4-b]pyridine] registered a melting point of 220 °C.
The figure for `CCOC(=O)C1=C(C(F)(F)F)Nc2n[nH]cc2C1c1cccc2ccccc12` (stereo not shown) [Example 24, Ethyl 4,7-dihydro-4-(1-naphthyl)-6-trifluoromethyl-2H-pyrazolo[3,4-b]pyridine-5-carboxylate] is 119 to 120 °C.
The figure for `CCC1=C(C#N)C(c2cccc(C#N)c2Br)c2c[nH]nc2N1` (stereo not shown) [Example 198, 4-(2-Bromo-3-cyanophenyl)-5-cyano-6-ethyl-4,7-dihydro-2H-pyrazolo[3,4-b]pyridine] is > 300 °C; for `CC(C)(C)OC(=O)N1CCOC(C2=C(C#N)C(c3cccc(C#N)c3Br)c3c[nH]nc3N2)C1` (stereo not shown) [Example 1044, 4-(2-Bromo-3-cyanophenyl)-6-(4-t-butoxycarbonylmorpholin-2-yl)-5-cyano-4,7-dihydro-2H-pyrazolo[3,4-b]pyridine] it is 219 °C; for `CCCC1=C(C(=O)OCC)C(c2cccc(C#N)c2Br)c2c[nH]nc2N1` (stereo not shown) [Example 183, Ethyl 4-(2-bromo-3-cyanophenyl)-4,7-dihydro-6-propyl-2H-pyrazolo[3,4-b]pyridine-5-carboxylate] it is 210 to 212 °C (dec.).
The result for `N#CC1=C(C2CCCCN2)Nc2n[nH]cc2C1c1cccc(C#N)c1Br.O=C(O)C(F)(F)F` (stereo not shown) reads 232 °C; that for `CCC1=C(C#N)C(c2ccccc2Cl)c2c[nH]nc2N1` (stereo not shown) [Example 197, 4-(2-Chlorophenyl)-5-cyano-6-ethyl-4,7-dihydro-2H-pyrazolo[3,4-b]pyridine], > 300 °C.
`CCCC1=C(C(=O)OCC)C(c2ccccc2)c2c[nH]nc2N1.O=C(O)/C=C\C(=O)O` (stereo not shown) [Example 25, Ethyl 4,7-dihydro-4-phenyl-6-propyl-2H-pyrazolo[3,4-b]pyridine-5-carboxylate maleate] displayed a melting point of 139 to 141 °C.
The result for `CS(=O)(=O)N1CCC(C2=C(C#N)C(c3cccc(C#N)c3Br)c3c[nH]nc3N2)CC1` (stereo not shown) [Example 1053, 4-(2-Bromo-3-cyanophenyl)-5-cyano-4,7-dihydro-6-(1-methanesulfonylpiperidin-4-yl)-2H-pyrazolo[3,4-b]pyridine] reads > 280 °C.

For the origin of these results see patent publication US6977262B2, “Dihydropyrazolopyridine compounds and pharmaceutical use thereof” (Mitsubishi Pharma Corporation, priority 2001, dated 2005).
